Patent publication US10344060B2 (priority 2013, dated 2019)

The compounds below were run against hNav1.7 (Homo sapiens, UniProt Q15858) (assay: cell-based). Settings: Table 12; PatchXpress, tonic block; read-out: PX hNav1.7 Tonic IC50.
Type: cell-based

Sequence of hNav1.7 (Q15858 whole entry): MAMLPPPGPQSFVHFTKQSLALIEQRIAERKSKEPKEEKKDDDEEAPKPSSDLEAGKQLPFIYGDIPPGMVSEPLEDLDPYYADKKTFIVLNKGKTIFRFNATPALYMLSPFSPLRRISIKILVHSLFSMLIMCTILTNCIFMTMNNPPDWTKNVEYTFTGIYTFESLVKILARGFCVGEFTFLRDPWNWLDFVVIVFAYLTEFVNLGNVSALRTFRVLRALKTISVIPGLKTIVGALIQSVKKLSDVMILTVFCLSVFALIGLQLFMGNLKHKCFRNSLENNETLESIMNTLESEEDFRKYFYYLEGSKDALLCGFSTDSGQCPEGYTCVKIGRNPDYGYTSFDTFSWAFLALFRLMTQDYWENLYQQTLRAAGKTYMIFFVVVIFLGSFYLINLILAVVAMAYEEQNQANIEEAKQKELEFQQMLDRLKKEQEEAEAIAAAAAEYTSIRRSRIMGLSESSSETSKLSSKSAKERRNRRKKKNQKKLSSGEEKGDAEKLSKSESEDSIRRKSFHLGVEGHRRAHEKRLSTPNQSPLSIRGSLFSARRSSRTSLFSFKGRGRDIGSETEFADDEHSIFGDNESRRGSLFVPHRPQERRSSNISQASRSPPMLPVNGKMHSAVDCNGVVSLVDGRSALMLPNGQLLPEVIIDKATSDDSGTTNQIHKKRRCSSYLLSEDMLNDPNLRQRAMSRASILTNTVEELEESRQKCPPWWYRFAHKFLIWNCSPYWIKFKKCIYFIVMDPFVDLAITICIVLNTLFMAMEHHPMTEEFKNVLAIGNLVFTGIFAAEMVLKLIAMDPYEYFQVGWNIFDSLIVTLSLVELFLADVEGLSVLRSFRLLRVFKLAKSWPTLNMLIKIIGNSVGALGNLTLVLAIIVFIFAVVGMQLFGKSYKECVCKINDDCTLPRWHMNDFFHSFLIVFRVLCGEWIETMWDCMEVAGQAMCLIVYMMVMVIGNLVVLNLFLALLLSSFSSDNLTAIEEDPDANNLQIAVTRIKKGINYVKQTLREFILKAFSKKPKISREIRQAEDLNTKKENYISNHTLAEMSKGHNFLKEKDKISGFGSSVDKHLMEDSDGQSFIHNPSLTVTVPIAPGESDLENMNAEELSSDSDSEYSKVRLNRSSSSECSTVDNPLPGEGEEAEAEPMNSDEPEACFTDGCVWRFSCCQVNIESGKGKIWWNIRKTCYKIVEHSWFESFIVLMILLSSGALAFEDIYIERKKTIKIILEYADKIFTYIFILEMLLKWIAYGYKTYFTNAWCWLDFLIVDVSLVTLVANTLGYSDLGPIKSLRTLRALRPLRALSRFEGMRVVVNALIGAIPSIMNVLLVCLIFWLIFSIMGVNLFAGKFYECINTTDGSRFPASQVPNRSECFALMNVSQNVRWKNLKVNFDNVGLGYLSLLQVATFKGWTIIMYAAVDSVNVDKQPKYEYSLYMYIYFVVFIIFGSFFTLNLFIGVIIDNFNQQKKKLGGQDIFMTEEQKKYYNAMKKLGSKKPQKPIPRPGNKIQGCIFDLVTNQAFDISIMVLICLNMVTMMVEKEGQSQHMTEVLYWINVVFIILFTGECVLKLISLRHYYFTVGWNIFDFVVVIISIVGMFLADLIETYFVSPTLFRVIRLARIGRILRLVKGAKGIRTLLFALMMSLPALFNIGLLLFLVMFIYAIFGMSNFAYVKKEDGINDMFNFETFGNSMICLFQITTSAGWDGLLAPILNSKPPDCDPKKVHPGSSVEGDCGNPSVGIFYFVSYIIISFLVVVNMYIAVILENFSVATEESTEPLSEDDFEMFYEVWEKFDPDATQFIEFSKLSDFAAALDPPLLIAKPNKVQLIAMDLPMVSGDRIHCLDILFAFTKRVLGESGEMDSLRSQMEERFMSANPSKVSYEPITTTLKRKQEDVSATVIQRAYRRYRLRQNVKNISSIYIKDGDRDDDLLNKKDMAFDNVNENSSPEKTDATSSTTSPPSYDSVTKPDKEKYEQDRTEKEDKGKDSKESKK

Compound	IC50 [nM]
C#CC[C@H](N)C(=O)N[C@@H](Cc1ccc(O)cc1)C(=O)N[C@H]1CSSC[C@@H]2NC(=O)[C@@H]3CSSC[C@@H](C(=O)N[C@@H](CCCNC(=N)N)C(=O)N[C@@H](CCCCN)C(=O)NCC(=O)N[C@H](C(N)=O)[C@@H](C)CC)NC(=O)[C@H](Cc4c[nH]c5ccccc45)NC(=O)[C@H](CC(C)C)NC(=O)[C@H](CCCCN)NC(=O)[C@H](CSSC[C@H](NC(=O)[C@H]([C@@H](C)O)NC(=O)[C@H](Cc4c[nH]c5ccccc45)NC(=O)[C@H](CCCC)NC(=O)[C@H](Cc4c[nH]c5ccccc45)NC(=O)[C@H](CCCCN)NC(=O)[C@H](CCC(N)=O)NC1=O)C(=O)N[C@@H](CC(=O)O)C(=O)N[C@@H](CO)C(=O)N[C@@H](CCCCN)C(=O)N[C@@H](CCCNC(=N)N)C(=O)N[C@@H](C)C(=O)N3)NC(=O)[C@H](CCCNC(=N)N)NC(=O)[C@H](CC(C)C)NC(=O)CNC(=O)[C@H](CCC(=O)O)NC2=O [compound 651]	3.14
C#CC[C@H](N)C(=O)N[C@@H](Cc1ccc(O)cc1)C(=O)N[C@H]1CSSC[C@@H]2NC(=O)[C@@H]3CSSC[C@@H](C(=O)N[C@@H](CCCNC(=N)N)C(=O)N[C@@H](CCCCN)C(=O)N[C@@H](Cc4c[nH]cn4)C(=O)N[C@H](C(N)=O)[C@@H](C)CC)NC(=O)[C@H](Cc4c[nH]c5ccccc45)NC(=O)[C@H](CC(C)C)NC(=O)[C@H](CCCCN)NC(=O)[C@H](CSSC[C@H](NC(=O)[C@H]([C@@H](C)O)NC(=O)[C@H](Cc4c[nH]c5ccccc45)NC(=O)[C@H](CCCC)NC(=O)[C@H](Cc4c[nH]c5ccccc45)NC(=O)[C@H](CCCCN)NC(=O)[C@H](CCC(N)=O)NC1=O)C(=O)N[C@@H](CC(=O)O)C(=O)N[C@@H](CO)C(=O)N[C@@H](CCCCN)C(=O)N[C@@H](CCCNC(=N)N)C(=O)N[C@@H](C)C(=O)N3)NC(=O)[C@H](CCCNC(=N)N)NC(=O)[C@H](CC(C)C)NC(=O)CNC(=O)[C@H](CCC(=O)O)NC2=O [compound 652]	0.371

Same assay, conditions: ratio of PX tonic IC50 values; Table 11

Compound	Nav1.4/Nav1.7	Nav1.5/Nav1.7
CCCC[C@@H]1NC(=O)[C@H](Cc2c[nH]c3ccccc23)NC(=O)[C@H](CCCCN)NC(=O)[C@H](CCC(N)=O)NC(=O)[C@@H](NC(=O)[C@H](Cc2ccc(O)cc2)NC(=O)[C@H](CCC)NC(=O)[C@H](N)CC(C)C)CSSC[C@@H]2NC(=O)[C@@H]3CSSC[C@@H](C(=O)N[C@@H](CCCNC(=N)N)C(=O)N[C@@H](CCCCN)C(=O)N[C@@H](CCC(=O)O)C(=O)N[C@H](C(N)=O)[C@@H](C)CC)NC(=O)[C@H](Cc4c[nH]c5ccccc45)NC(=O)[C@H](CC(C)C)NC(=O)[C@H](CCCCN)NC(=O)[C@H](CSSC[C@H](NC(=O)[C@H]([C@@H](C)O)NC(=O)[C@H](Cc4c[nH]c5ccccc45)NC1=O)C(=O)N[C@@H](CC(=O)O)C(=O)N[C@@H](CO)C(=O)N[C@@H](CCCCN)C(=O)N[C@@H](CCCNC(=N)N)C(=O)N[C@@H](CCCCNC(=O)CCOCCOCCOCCOCCOCCOCCOCCOCCOCCOCCOCCOCCN)C(=O)N3)NC(=O)[C@H](CCCNC(=N)N)NC(=O)[C@H](CC(C)C)NC(=O)CNC(=O)[C@H](CCC(=O)O)NC2=O [compound 472]	42	349
CCCC[C@@H]1NC(=O)[C@H](Cc2c[nH]c3ccccc23)NC(=O)[C@H](CCCCN)NC(=O)[C@H](CCC(N)=O)NC(=O)[C@@H](NC(=O)[C@H](Cc2ccc(O)cc2)NC(=O)[C@H](CCC)NC(=O)[C@H](N)CC(C)C)CSSC[C@@H]2NC(=O)[C@@H]3CSSC[C@@H](C(=O)N[C@@H](CCCNC(=N)N)C(=O)N[C@@H](CCCCN)C(=O)N[C@@H](CCC(=O)O)C(=O)N[C@H](C(N)=O)[C@@H](C)CC)NC(=O)[C@H](Cc4c[nH]c5ccccc45)NC(=O)[C@H](CC(C)C)NC(=O)[C@H](CCCCN)NC(=O)[C@H](CSSC[C@H](NC(=O)[C@H]([C@@H](C)O)NC(=O)[C@H](Cc4c[nH]c5ccccc45)NC1=O)C(=O)N[C@@H](CC(=O)O)C(=O)N[C@@H](CO)C(=O)N[C@@H](CCCCN)C(=O)N[C@@H](CCCNC(=N)N)C(=O)N[C@@H](C)C(=O)N3)NC(=O)[C@H](CCCNC(=N)N)NC(=O)[C@H](CC(C)C)NC(=O)CNC(=O)[C@H](CCCCNC(=O)CCOCCOCCOCCOCCOCCOCCOCCOCCOCCOCCOCCOCCN)NC2=O [compound 473]	34	180
CCCC[C@@H]1NC(=O)[C@H](Cc2c[nH]c3ccccc23)NC(=O)[C@H](CCCCN)NC(=O)[C@H](CCC(N)=O)NC(=O)[C@@H](NC(=O)[C@H](Cc2ccc(O)cc2)NC(=O)[C@@H](N)CC#N)CSSC[C@@H]2NC(=O)[C@@H]3CSSC[C@@H](C(=O)N[C@@H](CCCNC(=N)N)C(=O)N[C@@H](CCCCN)C(=O)N[C@H](C(=O)N[C@@H](Cc4c[nH]c5ccccc45)C(N)=O)[C@@H](C)CC)NC(=O)[C@H](Cc4c[nH]c5ccccc45)NC(=O)[C@H](CC(C)C)NC(=O)[C@H](CCCCN)NC(=O)[C@H](CSSC[C@H](NC(=O)[C@H]([C@@H](C)O)NC(=O)[C@H](Cc4c[nH]c5ccccc45)NC1=O)C(=O)N[C@@H](CC(=O)O)C(=O)N[C@@H](CO)C(=O)N[C@@H](CCCCN)C(=O)N[C@@H](CCCNC(=N)N)C(=O)N[C@@H](C)C(=O)N3)NC(=O)[C@H](CCCCNC(=O)CCOCCOCCOCCOCCOCCOCCOCCOCCOCCOCCOCCOCCN)NC(=O)[C@H](CC(C)C)NC(=O)CNC(=O)[C@H](CCC(=O)O)NC2=O [compound 476]	13	71
CCCC[C@@H]1NC(=O)[C@H](Cc2c[nH]c3ccccc23)NC(=O)[C@H](CCCCN)NC(=O)[C@H](CCC(N)=O)NC(=O)[C@@H](NC(=O)[C@H](Cc2ccccc2)NC(=O)[C@@H](N)CC#N)CSSC[C@@H]2NC(=O)[C@@H]3CSSC[C@@H](C(=O)N[C@@H](CCCNC(=N)N)C(=O)N[C@@H](CCCCN)C(=O)N[C@@H](CCC(=O)O)C(=O)N[C@H](C(N)=O)[C@@H](C)CC)NC(=O)[C@H](Cc4c[nH]c5ccccc45)NC(=O)[C@H](CC(C)C)NC(=O)[C@H](CCCCN)NC(=O)[C@H](CSSC[C@H](NC(=O)[C@H]([C@@H](C)O)NC(=O)[C@H](Cc4c[nH]c5ccccc45)NC1=O)C(=O)N[C@@H](CC(=O)O)C(=O)N[C@@H](CO)C(=O)N[C@@H](CCCCN)C(=O)N[C@@H](CCCNC(=N)N)C(=O)N[C@@H](C)C(=O)N3)NC(=O)[C@H](CCCNC(=N)N)NC(=O)[C@H](CC(C)C)NC(=O)CNC(=O)[C@H](CCCCNC(=O)CCOCCOCCOCCOCCOCCOCCOCCOCCOCCOCCOCCOCCN)NC2=O [compound 551]	13	–
CCCC[C@@H]1NC(=O)[C@H](CO)NC(=O)[C@H](CC(=O)O)NC(=O)[C@@H]2CSSC[C@@H]3NC(=O)[C@H](CCCNC(=N)N)NC(=O)[C@H](CC(C)C)NC(=O)CNC(=O)[C@H](CCCCNC(=O)CCOCCOCCOCCOCCOCCOCCOCCOCCOCCOCCOCCOCCN)NC(=O)[C@H](CSSC[C@H](NC(=O)[C@H](Cc4ccc(O)cc4)NC(=O)[C@@H](N)CC#N)C(=O)N[C@@H](CCC(N)=O)C(=O)N[C@@H](CCCCN)C(=O)N[C@@H](Cc4c[nH]c5ccccc45)C(=O)N[C@@H](CCCC)C(=O)N[C@@H](Cc4c[nH]c5ccccc45)C(=O)N[C@@H]([C@@H](C)O)C(=O)N2)NC(=O)[C@H](CSSC[C@@H](C(=O)N[C@@H](CCCNC(=N)N)C(=O)N[C@@H](CCCCN)C(=O)N[C@@H](CCC(=O)O)C(=O)N[C@H](C(N)=O)[C@@H](C)CC)NC(=O)[C@H](Cc2c[nH]c4ccccc24)NC(=O)[C@H](CC(C)C)NC(=O)[C@H](CCCCN)NC3=O)NC(=O)[C@H](C)NC(=O)[C@H](CCCNC(=N)N)NC1=O [compound 561]	33	–
CCCC[C@@H]1NC(=O)[C@H](Cc2c[nH]c3ccccc23)NC(=O)[C@H](CCCCN)NC(=O)[C@H](CCC(N)=O)NC(=O)[C@@H](NC(=O)[C@H](CCCCNC(=O)CCOCCOCCOCCOCCOCCOCCOCCOCCOCCOCCOCCOCCN)NC(=O)[C@@H](N)CC#N)CSSC[C@@H]2NC(=O)[C@@H]3CSSC[C@@H](C(=O)N[C@@H](CCCNC(=N)N)C(=O)N[C@@H](CCCCN)C(=O)N[C@@H](CCC(=O)O)C(=O)N[C@H](C(N)=O)[C@@H](C)CC)NC(=O)[C@H](Cc4c[nH]c5ccccc45)NC(=O)[C@H](CC(C)C)NC(=O)[C@H](CCCCN)NC(=O)[C@H](CSSC[C@H](NC(=O)[C@H]([C@@H](C)O)NC(=O)[C@H](Cc4c[nH]c5ccccc45)NC1=O)C(=O)N[C@@H](CC(=O)O)C(=O)N[C@@H](CO)C(=O)N[C@@H](CCCCN)C(=O)N[C@@H](CCCNC(=N)N)C(=O)N[C@@H](C)C(=O)N3)NC(=O)[C@H](CCCNC(=N)N)NC(=O)[C@H](CC(C)C)NC(=O)CNC(=O)[C@H](CCC(=O)O)NC2=O [compound 563]	126	–
CCCC[C@@H]1NC(=O)[C@H](Cc2c[nH]c3ccccc23)NC(=O)[C@H](CCCCN)NC(=O)[C@H](CCC(N)=O)NC(=O)[C@@H](NC(=O)[C@H](Cc2ccc(O)cc2)NC(=O)[C@@H](N)CC#N)CSSC[C@@H]2NC(=O)[C@@H]3CSSC[C@@H](C(=O)N[C@@H](CCCNC(=N)N)C(=O)N[C@@H](CCCCN)C(=O)N[C@@H](CCC(=O)O)C(=O)N[C@H](C(N)=O)[C@@H](C)CC)NC(=O)[C@H](Cc4c[nH]c5ccccc45)NC(=O)[C@H](CC(C)C)NC(=O)[C@H](CCCCN)NC(=O)[C@H](CSSC[C@H](NC(=O)[C@H]([C@@H](C)O)NC(=O)[C@H](Cc4c[nH]c5ccccc45)NC1=O)C(=O)N[C@@H](CC(=O)O)C(=O)N[C@@H](CCCCNC(=O)CCOCCOCCOCCOCCOCCOCCOCCOCCOCCOCCOCCOCCN)C(=O)N[C@@H](CCCCN)C(=O)N[C@@H](CCCNC(=N)N)C(=O)N[C@@H](C)C(=O)N3)NC(=O)[C@H](CCCNC(=N)N)NC(=O)[C@H](CC(C)C)NC(=O)CNC(=O)[C@H](CCC(=O)O)NC2=O [compound 565]	75	–
CCCC[C@@H]1NC(=O)[C@H](Cc2c[nH]c3ccccc23)NC(=O)[C@H](CCCCN)NC(=O)[C@H](CCC(N)=O)NC(=O)[C@@H](NC(=O)[C@H](Cc2ccc(O)cc2)NC(=O)[C@@H](N)CC#N)CSSC[C@@H]2NC(=O)[C@@H]3CSSC[C@@H](C(=O)N[C@@H](CCCNC(=N)N)C(=O)N[C@@H](CCCCN)C(=O)N[C@@H](CCC(=O)O)C(=O)N[C@H](C(N)=O)[C@@H](C)CC)NC(=O)[C@H](Cc4c[nH]c5ccccc45)NC(=O)[C@H](CC(C)C)NC(=O)[C@H](CCCCN)NC(=O)[C@H](CSSC[C@H](NC(=O)[C@H]([C@@H](C)O)NC(=O)[C@H](Cc4c[nH]c5ccccc45)NC1=O)C(=O)N[C@@H](CC(=O)O)C(=O)N[C@@H](CO)C(=O)N[C@@H](CCCCNC(=O)CCOCCOCCOCCOCCOCCOCCOCCOCCOCCOCCOCCOCCN)C(=O)N[C@@H](CCCNC(=N)N)C(=O)N[C@@H](C)C(=O)N3)NC(=O)[C@H](CCCNC(=N)N)NC(=O)[C@H](CC(C)C)NC(=O)CNC(=O)[C@H](CCC(=O)O)NC2=O [compound 566]	103	–
